According to PubChem BioAssay (NCI):
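At the GI50, growth is halved. At the TGI there is no net growth.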

Experiments:
Assay in all cases: NCI tumour cell line growth inhibition, 384-well format; in the data active means GI50 below about 0.43 µM; inactive means the rest
RPMI-8226 leukemia = tested on: RPMI-8226 leukemia
SF-539 CNS = tested on: SF-539 CNS
OVCAR-4 ovarian = tested on: OVCAR-4 ovarian
NCI-H226 lung = tested on: NCI-H226 lung
U251 glioblastoma = tested on: U251 glioblastoma
HOP-92 NSCLC = tested on: HOP-92 NSCLC
MOLT-4 leukemia = tested on: MOLT-4 leukemia
OVCAR-8 ovarian = tested on: OVCAR-8 ovarian
HL-60(TB) leukemia = tested on: HL-60(TB) leukemia
K-562 leukemia = tested on: K-562 leukemia
SN12C renal = tested on: SN12C renal
SK-MEL-2 melanoma = tested on: SK-MEL-2 melanoma
NCI-H23 lung = tested on: NCI-H23 lung
SNB-75 CNS = tested on: SNB-75 CNS
IGROV1 ovarian = tested on: IGROV1 ovarian
KM12 colon = tested on: KM12 colon
NCI-H522 lung = tested on: NCI-H522 lung
786-0 renal = tested on: 786-0 renal
T-47D breast = tested on: T-47D breast
SW-620 colon = tested on: SW-620 colon
OVCAR-5 ovarian = tested on: OVCAR-5 ovarian
HOP-62 NSCLC = tested on: HOP-62 NSCLC
DU-145 prostate = tested on: DU-145 prostate
CAKI-1 renal = tested on: CAKI-1 renal
SF-295 CNS = tested on: SF-295 CNS
A549 NSCLC = tested on: A549 NSCLC
ACHN renal = tested on: ACHN renal
HCT-15 colon = tested on: HCT-15 colon
SK-MEL-28 melanoma = tested on: SK-MEL-28 melanoma
MCF7 breast = tested on: MCF7 breast
NCI/ADR-RES ovarian = tested on: NCI/ADR-RES ovarian
LOX IMVI melanoma = tested on: LOX IMVI melanoma
CCRF-CEM leukemia = tested on: CCRF-CEM leukemia
UO-31 renal = tested on: UO-31 renal
M14 melanoma = tested on: M14 melanoma
MDA-MB-468 breast = tested on: MDA-MB-468 breast
HT29 colon = tested on: HT29 colon
PC-3 prostate = tested on: PC-3 prostate
OVCAR-3 ovarian = tested on: OVCAR-3 ovarian
SF-268 CNS = tested on: SF-268 CNS
HCT-116 colon = tested on: HCT-116 colon
BT-549 breast = tested on: BT-549 breast
SNB-19 CNS = tested on: SNB-19 CNS
MALME-3M melanoma = tested on: MALME-3M melanoma
RXF 393 renal = tested on: RXF 393 renal
UACC-62 melanoma = tested on: UACC-62 melanoma
SK-OV-3 ovarian = tested on: SK-OV-3 ovarian

N[C@@H](Cc1ccc(N(CCCl)CCCl)cc1)C(=O)O
44.9 µM: TGI (SF-268 CNS)
2.2 µM: TGI (MOLT-4 leukemia)
18.7 µM: TGI (MDA-MB-468 breast)
96.2 µM: TGI (SK-OV-3 ovarian)
22.6 µM: TGI (RPMI-8226 leukemia)
33.3 µM: TGI (RXF 393 renal)
4.41 µM: TGI (CCRF-CEM leukemia)
43.1 µM: TGI (SF-295 CNS)
inactive: GI50 (RPMI-8226 leukemia) 7.95 µM | GI50 (SF-539 CNS) 15.4 µM | GI50 (OVCAR-4 ovarian) 40.7 µM | GI50 (NCI-H226 lung) 87.8 µM | GI50 (U251 glioblastoma) 16.1 µM | GI50 (HOP-92 NSCLC) 28.2 µM | GI50 (MOLT-4 leukemia) 1.01 µM | GI50 (OVCAR-8 ovarian) 11.8 µM | GI50 (HL-60(TB) leukemia) 1.34 µM | GI50 (K-562 leukemia) 27.8 µM | GI50 (SN12C renal) 8.12 µM | GI50 (SK-MEL-2 melanoma) 63.1 µM | GI50 (NCI-H23 lung) 17.8 µM | GI50 (SNB-75 CNS) 20.9 µM | GI50 (IGROV1 ovarian) 85.1 µM | GI50 (KM12 colon) 70.3 µM | GI50 (NCI-H522 lung) 14.4 µM | GI50 ([…]-0 renal) 28.9 µM | GI50 (T-47D breast) 41 µM | GI50 (SW-620 colon) 26.8 µM | GI50 (OVCAR-5 ovarian) 34.2 µM | GI50 (HOP-62 NSCLC) 11.7 µM | GI50 (DU-145 prostate) 28.5 µM | GI50 (CAKI-1 renal) 13.2 µM | GI50 (SF-295 CNS) 19.2 µM | GI50 (A549 NSCLC) 26.9 µM | GI50 (ACHN renal) 19 µM | GI50 (HCT-15 colon) 11.1 µM | GI50 (SK-MEL-28 melanoma) 89.7 µM | GI50 (MCF7 breast) 9.86 µM | GI50 (NCI/ADR-RES ovarian) 55.3 µM | GI50 (LOX IMVI melanoma) 23.1 µM | GI50 (CCRF-CEM leukemia) 2.38 µM | GI50 (UO-31 renal) 52 µM | GI50 (M14 melanoma) 20.8 µM | GI50 (MDA-MB-468 breast) 4.53 µM | GI50 (HT29 colon) 47 µM | GI50 (PC-3 prostate) 80.2 µM | GI50 (OVCAR-3 ovarian) 26 µM | GI50 (SF-268 CNS) 7.04 µM | GI50 (HCT-116 colon) 23.8 µM | GI50 (BT-549 breast) 16.9 µM | GI50 (SNB-19 CNS) 48.1 µM | GI50 (MALME-3M melanoma) 14 µM | GI50 (RXF 393 renal) 17.3 µM | GI50 (UACC-62 melanoma) 15.2 µM | GI50 (SK-OV-3 ovarian) 20.5 µM
28.1 µM: TGI (NCI-H522 lung)
30.7 µM: TGI (MALME-3M melanoma)
60.5 µM: TGI (NCI-H23 lung)
43.7 µM: TGI (ACHN renal)
40.1 µM: TGI (HOP-62 NSCLC)
58.5 µM: TGI (SF-539 CNS)
2.78 µM: TGI (HL-60(TB) leukemia)
82.1 µM: TGI (BT-549 breast)
90 µM: TGI (DU-145 prostate)
